Assay results from PMC4716540 (British Journal of Cancer, 2015).
“Also recorded” adds a separate entry of the source.

Tested on: patients with confirmed relapsed/refractory MM, CLL, or NHL
Assay: Phase I safety and tolerability: adverse events, DLT, MTD, RP2D
Assay type: in vivo, human

## CCc1c(O)cc(O)c(C(=O)c2ccc(OCCN3CCOCC3)c(OC)c2)c1CC(=O)N(CCOC)CCOC [KW-2478]
14 mg m^–2
  Number of treatment-related AEs per patient (average): 1.0
14 mg m^–2 (n=3)
  AE (treatment-emergent): 3 (100.0) No. of patients (%)
  Abdominal pain (any AE): 0 No. of patients (%)
  Acne (any AE): 0 No. of patients (%)
  Anaemia (any AE): 0 No. of patients (%)
  Anorexia (any AE): 0 No. of patients (%)
  Back pain (any AE): 1 (33.3) No. of patients (%)
  Diarrhoea (any AE): 0 No. of patients (%)
  Dizziness (any AE): 0 No. of patients (%)
  Fatigue (any AE): 1 (33.3) No. of patients (%)
  Haemoglobin decreased (any AE): 0 No. of patients (%)
  Hair disorder (any AE): 0 No. of patients (%)
  Headache (any AE): 1 (33.3) No. of patients (%)
  Herpes simplex infection (any AE): 0 No. of patients (%)
  Hypertension (any AE): 0 No. of patients (%)
  LRTI (any AE): 0 No. of patients (%)
  Musculoskeletal chest pain (any AE): 0 No. of patients (%)
  Nausea (any AE): 1 (33.3) No. of patients (%)
  Oral herpes (any AE): 0 No. of patients (%)
  Rhinitis (any AE): 1 (33.3) No. of patients (%)
  Serious AE: 0 No. of patients (%)
  Treatment-related AE: 2 (66.7) No. of patients (%)
  Vomiting (any AE): 0 No. of patients (%)
28 mg m^–2 (n=3)
  AE (treatment-emergent): 3 (100.0) No. of patients (%)
  Abdominal pain (any AE): 0 No. of patients (%)
  Acne (any AE): 1 (33.3) No. of patients (%)
  Anaemia (any AE): 0 No. of patients (%)
  Anorexia (any AE): 0 No. of patients (%)
  Back pain (any AE): 1 (33.3) No. of patients (%)
  Diarrhoea (any AE): 0 No. of patients (%)
  Dizziness (any AE): 0 No. of patients (%)
  Fatigue (any AE): 0 No. of patients (%)
  Haemoglobin decreased (any AE): 0 No. of patients (%)
  Hair disorder (any AE): 1 (33.3) No. of patients (%)
  Headache (any AE): 0 No. of patients (%)
  Herpes simplex infection (any AE): 1 (33.3) No. of patients (%)
  Hypertension (any AE): 0 No. of patients (%)
  LRTI (any AE): 0 No. of patients (%)
  Musculoskeletal chest pain (any AE): 0 No. of patients (%)
  Nausea (any AE): 1 (33.3) No. of patients (%)
  Oral herpes (any AE): 1 (33.3) No. of patients (%)
  Rhinitis (any AE): 1 (33.3) No. of patients (%)
  Serious AE: 0 No. of patients (%)
  Treatment-related AE: 2 (66.7) No. of patients (%)
  Vomiting (any AE): 1 (33.3) No. of patients (%)
47 mg m^–2 (n=4)
  AE (treatment-emergent): 4 (100.0) No. of patients (%)
  Abdominal pain (any AE): 0 No. of patients (%)
  Acne (any AE): 1 (25.0) No. of patients (%)
  Anaemia (any AE): 1 (25.0) No. of patients (%)
  Anorexia (any AE): 0 No. of patients (%)
  Back pain (any AE): 0 No. of patients (%)
  Diarrhoea (any AE): 2 (50.0) No. of patients (%)
  Dizziness (any AE): 0 No. of patients (%)
  Fatigue (any AE): 0 No. of patients (%)
  Haemoglobin decreased (any AE): 0 No. of patients (%)
  Hair disorder (any AE): 1 (25.0) No. of patients (%)
  Headache (any AE): 0 No. of patients (%)
  Herpes simplex infection (any AE): 0 No. of patients (%)
  Hypertension (any AE): 2 (50.0) No. of patients (%)
  LRTI (any AE): 0 No. of patients (%)
  Musculoskeletal chest pain (any AE): 0 No. of patients (%)
  Nausea (any AE): 0 No. of patients (%)
  Oral herpes (any AE): 0 No. of patients (%)
  Rhinitis (any AE): 1 (25.0) No. of patients (%)
  Serious AE: 0 No. of patients (%)
  Treatment-related AE: 3 (75.0) No. of patients (%)
  Vomiting (any AE): 1 (25.0) No. of patients (%)
71 mg m^–2 (n=4)
  AE (treatment-emergent): 4 (100.0) No. of patients (%)
  Abdominal pain (any AE): 0 No. of patients (%)
  Acne (any AE): 1 (25.0) No. of patients (%)
  Anaemia (any AE): 0 No. of patients (%)
  Anorexia (any AE): 0 No. of patients (%)
  Back pain (any AE): 0 No. of patients (%)
  Diarrhoea (any AE): 2 (50.0) No. of patients (%)
  Dizziness (any AE): 2 (50.0) No. of patients (%)
  Fatigue (any AE): 1 (25.0) No. of patients (%)
  Haemoglobin decreased (any AE): 1 (25.0) No. of patients (%)
  Hair disorder (any AE): 1 (25.0) No. of patients (%)
  Headache (any AE): 2 (50.0) No. of patients (%)
  Herpes simplex infection (any AE): 1 (25.0) No. of patients (%)
  Hypertension (any AE): 2 (50.0) No. of patients (%)
  LRTI (any AE): 1 (25.0) No. of patients (%)
  Musculoskeletal chest pain (any AE): 0 No. of patients (%)
  Nausea (any AE): 2 (50.0) No. of patients (%)
  Oral herpes (any AE): 1 (25.0) No. of patients (%)
  Rhinitis (any AE): 1 (25.0) No. of patients (%)
  Serious AE: 2 (50) No. of patients (%)
  Treatment-related AE: 4 (100.0) No. of patients (%)
71 mg m^–2 (n=4), considered unrelated to medication
  Death: 1 (25) No. of patients (%)
99 mg m^–2 (n=4)
  AE (treatment-emergent): 4 (100.0) No. of patients (%)
  Abdominal pain (any AE): 1 (25.0) No. of patients (%)
  Acne (any AE): 0 No. of patients (%)
  Anaemia (any AE): 0 No. of patients (%)
  Anorexia (any AE): 0 No. of patients (%)
  Back pain (any AE): 2 (50.0) No. of patients (%)
  Diarrhoea (any AE): 2 (50.0) No. of patients (%)
  Dizziness (any AE): 0 No. of patients (%)
  Fatigue (any AE): 2 (50.0) No. of patients (%)
  Haemoglobin decreased (any AE): 0 No. of patients (%)
  Hair disorder (any AE): 0 No. of patients (%)
  Headache (any AE): 2 (50.0) No. of patients (%)
  Herpes simplex infection (any AE): 0 No. of patients (%)
  Hypertension (any AE): 1 (25.0) No. of patients (%)
  LRTI (any AE): 0 No. of patients (%)
  Musculoskeletal chest pain (any AE): 1 (25.0) No. of patients (%)
  Nausea (any AE): 1 (25.0) No. of patients (%)
  Oral herpes (any AE): 1 (25.0) No. of patients (%)
  Rhinitis (any AE): 0 No. of patients (%)
  Serious AE: 2 (50) No. of patients (%)
  Treatment-related AE: 3 (75.0) No. of patients (%)
  Vomiting (any AE): 1 (25.0) No. of patients (%)
132 mg m^–2 (n=6)
  AE (treatment-emergent): 6 (100.0) No. of patients (%)
  Abdominal pain (any AE): 2 (33.3) No. of patients (%)
  Acne (any AE): 0 No. of patients (%)
  Anaemia (any AE): 0 No. of patients (%)
  Anorexia (any AE): 1 (16.7) No. of patients (%)
  Back pain (any AE): 1 (16.7) No. of patients (%)
  Diarrhoea (any AE): 3 (50.0) No. of patients (%)
  Dizziness (any AE): 1 (16.7) No. of patients (%)
  Fatigue (any AE): 1 (16.7) No. of patients (%)
  Haemoglobin decreased (any AE): 2 (33.3) No. of patients (%)
  Hair disorder (any AE): 0 No. of patients (%)
  Headache (any AE): 4 (66.7) No. of patients (%)
  Herpes simplex infection (any AE): 0 No. of patients (%)
  Hypertension (any AE): 2 (33.3) No. of patients (%)
  LRTI (any AE): 1 (16.7) No. of patients (%)
  Musculoskeletal chest pain (any AE): 2 (33.3) No. of patients (%)
  Nausea (any AE): 2 (33.3) No. of patients (%)
  Oral herpes (any AE): 0 No. of patients (%)
  Rhinitis (any AE): 4 (66.7) No. of patients (%)
  Serious AE: 3 (50.0) No. of patients (%)
  Treatment-related AE: 5 (83.3) No. of patients (%)
  Vomiting (any AE): 3 (50.0) No. of patients (%)
176 mg m^–2
  Number of treatment-related AEs per patient (average): 9.2
176 mg m^–2 (n=7)
  AE (treatment-emergent): 7 (100.0) No. of patients (%)
  Abdominal pain (any AE): 0 No. of patients (%)
  Acne (any AE): 0 No. of patients (%)
  Anaemia (any AE): 3 (42.9) No. of patients (%)
  Anorexia (any AE): 2 (28.6) No. of patients (%)
  Back pain (any AE): 0 No. of patients (%)
  Diarrhoea (any AE): 4 (57.1) No. of patients (%)
  Dizziness (any AE): 0 No. of patients (%)
  Fatigue (any AE): 4 (57.1) No. of patients (%)
  Haemoglobin decreased (any AE): 0 No. of patients (%)
  Hair disorder (any AE): 0 No. of patients (%)
  Headache (any AE): 2 (28.6) No. of patients (%)
  Herpes simplex infection (any AE): 1 (14.3) No. of patients (%)
  Hypertension (any AE): 0 No. of patients (%)
  LRTI (any AE): 2 (28.6) No. of patients (%)
  Musculoskeletal chest pain (any AE): 1 (14.3) No. of patients (%)
  Nausea (any AE): 0 No. of patients (%)
  Oral herpes (any AE): 1 (14.3) No. of patients (%)
  Rhinitis (any AE): 3 (42.9) No. of patients (%)
  Serious AE: 1 (14.3) No. of patients (%)
  Treatment-related AE: 5 (71.4) No. of patients (%)
  Vomiting (any AE): 1 (14.3) No. of patients (%)
14–176 mg m^–2 iv once daily days 1–5 of 14-day cycle, first cycle
  Dose-limiting toxicities (DLTs): no dose-limiting toxicities; also recorded: no DLTs
All doses
  Changes in haematological or biochemistry values, vital signs, body weight, ECG results: no clinically meaningful changes
  Neurotoxicity and thrombocytopenia: no apparent neurotoxicity nor significant thrombocytopenia
  Tolerability: safe and well tolerated
  Treatment-related AEs ⩾grade 3: rare
All doses, all cycles
  Total number of treatment-related AEs reported: 127
All doses, all cycles, 27 patients
  Total number of AEs reported: 282
All doses, all cycles, N=27
  AE: diarrhoea: 48.1%
  AE: fatigue: 33.3%
  AE: headache: 40.7%
  AE: rhinitis: 40.7%
  Patients reporting AEs: 100%
  Patients reporting treatment-related AEs: 77.8%
All patients during the study
  Mean blood pressure: no apparent dose-related increase
Doses up to 176 mg m^–2
  Maximum-tolerated dose (MTD): not reached
Lethargy (two episodes) and syncope, QT prolongation, neutrophil decrease
  Grade 3/4 AEs considered possibly treatment-related: five events in three patients
Once daily on days 1–5 every 2 weeks, highest dose tested
  Recommended phase II dose (RP2D): 176 mg m^–2
Per patient, all doses, N=27
  Treatment-related AE: diarrhoea: 33.3%
  Treatment-related AE: dizziness: 7.4%
  Treatment-related AE: fatigue: 29.6%
  Treatment-related AE: headache: 25.9%
  Treatment-related AE: nausea: 14.8%
  Treatment-related AE: vomiting: 7.4%
Two patients, bronchopneumonia and lower respiratory tract infection
  Deaths during the study, relation to study medication: unrelated to study medication
